From ChEMBL document CHEMBL2203221, “Atom-based enumeration: new eribulin analogues with low susceptibility to P-glycoprotein-mediated drug efflux” (Bioorg Med Chem Lett, 2012) come the findings set out here.

The nature of assay [1]: Cytotoxicity against human MES-SA/Dx5-Rx1 cells. In kind it is functional, cell-based.
For the next assay, the system named is MES-SA. The assay can be described thus: Resistance ratio of IC50 for human MES-SA/Dx5-Rx1 cells to IC50 for human MES-SA cells. In kind it is functional.
Assay [2] can be described thus: Cytotoxicity against human MES-SA cells. The class given is functional, cell-based.

SMILES strings stand for the structures.

Turning to `C=C1C[C@@H]2CC[C@@]34C[C@H]5O[C@@H]6[C@@H](O3)[C@H]3O[C@H](CC[C@@H]3O[C@H]6[C@H]5O4)CC(=O)C[C@@H]3[C@@H](OC)[C@@H](C[C@H](O)CO)O[C@H]3C[C@H]3O[C@@H](CC[C@@H]1O2)C[C@@H](C)C3=C`, the IC50 in assay [1] was 6.5 nM; in assay [2], 0.03 nM. Besides, in the assay on MES-SA, the “Ratio IC50” value was determined as 220.
On to `C=C1C[C@@H]2CC[C@@]34C[C@H]5O[C@@H]6[C@@H](O3)[C@H]3O[C@H](CC[C@@H]3O[C@H]6[C@H]5O4)CC(=O)C[C@@H]3[C@@H](OC)[C@@H](C[C@H](O)COC)O[C@H]3C[C@H]3O[C@@H](CC[C@@H]1O2)C[C@@H](C)C3=C`, for which the IC50 amounted to 2.8 nM in assay [1] and 0.17 nM in assay [2]. For the same molecule, the “Ratio IC50” value with MES-SA was found to be 17.
Regarding `C=C1C[C@@H]2CC[C@@]34C[C@H]5O[C@@H]6[C@@H](O3)[C@H]3O[C@H](CC[C@@H]3O[C@H]6[C@H]5O4)CC(=O)C[C@@H]3[C@@H](OC)[C@@H](CCO)O[C@H]3C[C@H]3O[C@@H](CC[C@@H]1O2)C[C@@H](C)C3=C`, the values for the IC50 in assay [1] and in assay [2] were 100 nM and 3 nM, respectively. The “Ratio IC50” value with MES-SA was determined as 33.
In the same order, the values of `C=C1C[C@@H]2CC[C@@]34C[C@H]5O[C@@H]6[C@@H](O3)[C@H]3O[C@H](CC[C@@H]3O[C@H]6[C@H]5O4)CC(=O)C[C@@H]3[C@@H](OC)[C@@H](CC(C)O)O[C@H]3C[C@H]3O[C@@H](CC[C@@H]1O2)C[C@@H](C)C3=C` (stereo not given in full) are 4.8 nM, 0.29 nM and 17.
In the same order, the values of `C=C1C[C@@H]2CC[C@@]34C[C@H]5O[C@@H]6[C@@H](O3)[C@H]3O[C@H](CC[C@@H]3O[C@H]6[C@H]5O4)CC(=O)C[C@@H]3[C@@H](OC)[C@@H](CC(O)CCCC)O[C@H]3C[C@H]3O[C@@H](CC[C@@H]1O2)C[C@@H](C)C3=C` (stereo not given in full) are 0.91 nM, 0.22 nM and 4.2.
For `C=C1C[C@@H]2CC[C@@]34C[C@H]5O[C@@H]6[C@@H](O3)[C@H]3O[C@H](CC[C@@H]3O[C@H]6[C@H]5O4)CC(=O)C[C@@H]3[C@@H](OC)[C@@H](CC(O)CCCCCC)O[C@H]3C[C@H]3O[C@@H](CC[C@@H]1O2)C[C@@H](C)C3=C` (stereo not given in full), the figures for the IC50 in assay [1] and in assay [2] were 2.1 nM and 0.46 nM, respectively. Moreover, the “Ratio IC50” value in the assay with MES-SA worked out at 4.6.
With `C=C1C[C@@H]2CC[C@@]34C[C@H]5O[C@@H]6[C@@H](O3)[C@H]3O[C@H](CC[C@@H]3O[C@H]6[C@H]5O4)CC(=O)C[C@@H]3[C@@H](OC)[C@@H](CC(O)CCCCCCCC)O[C@H]3C[C@H]3O[C@@H](CC[C@@H]1O2)C[C@@H](C)C3=C` (stereo not given in full), the IC50 in assay [1] amounted to 5.6 nM; in assay [2] it was 0.77 nM. The “Ratio IC50” value in the assay with MES-SA is given as 7.2.
Consider `C=C1C[C@@H]2CC[C@@]34C[C@H]5O[C@H]6[C@@H](O3)[C@H]3O[C@H](CC[C@@H]3O[C@H]6[C@H]5O4)CC(=O)C[C@@H]3[C@@H](OC)[C@@H](C[C@H](O)CN)O[C@H]3C[C@H]3O[C@@H](CC[C@@H]1O2)C[C@@H](C)C3=C.CS(=O)(=O)O` [ERIBULIN MESYLATE], for which the IC50 in assay [1] stood at 3100 nM; in assay [2], 1.7 nM. Moreover, the “Ratio IC50” value in the assay with MES-SA stood at 1800.
In assay [1], `CC(=O)O[C@H]1C(=O)[C@@]2(C)[C@H]([C@H](OC(=O)c3ccccc3)[C@]3(O)C[C@H](OC(=O)[C@H](O)[C@@H](NC(=O)c4ccccc4)c4ccccc4)C(C)=C1C3(C)C)[C@]1(OC(C)=O)CO[C@@H]1C[C@@H]2O` [PACLITAXEL] had an IC50 of more than 1000 nM.
